# In patent publication US4694006A, “Acyl- or acyloxymethyl-allopurinol prodrugs” (priority 1983, dated 1987):
# Assays:
# [1] = Comparative absorption study following peroral administration, urinary excretion; format: in vivo; conditions: urine, po, human, dose corresponding to 100 mg allopurinol, read-out: total urinary excretion of allopurinol and oxipurinol
# Procedure: A comparative absorption study was also made of allopurinol and the above mentioned prodrug following peroral administration. […] The total urinary excretion of allopurinol and oxipurinol was measured and found to correspond to 67% of the dose given for the allopurinol tablet and 92% for the preparation containing the prodrug derivative.
# rabbits [2] = experiment: Intravenous administration to four rabbits, plasma levels; format: in vivo, rabbit; conditions: i.v., 25 mg allopurinol equivalents, all blood sampling times
# [3] = Between octanol and water
# Procedure: (§1) The water-solubility and lipophilicity of the allopurinol drugs
# (§2) The apparent partition coefficients (P) for some allopurinol derivatives and allopurinol were measured using the widely used 1-octanol-water system. Similarly, the solubility of the derivatives in water or aqueous buffer solutions was determined.
# man [4] = conditions: cited from earlier work
# [5] = Water-solubility of allopurinol and prodrugs; conditions: water
# Procedure: as §1, §2
# man [6] = conditions: rectal, various suppository preparations; cited from earlier work
# [7] = intravenous (Breithaupt & Tittel, 1982); cited from earlier work
# [8] = 25° C; cited from earlier work
# [9] = Bioavailability following rectal administration to rabbits (suppositories, micro-enemas); conditions: rabbit, in vivo, 25 mg
# Procedure: (§3) The suppositories or micro-enemas were administered to rabbits. After drug administration, blood samples were taken at various times and the plasma fraction assayed for allopurinol and its major metabolite oxipurinol using the HPLC method described above.
# rabbits [10] = experiment: as above; conditions: rabbits, rectal suppositories, 25 mg allopurinol equivalents, all three blood sampling times
# Procedure: as §3
smiles,measurement,setting,value
"Oc1ncnc2[nH]ncc12 [Allopurinol, allopurinol]",dose excreted,[1],67%
same,plasma levels of allopurinol after intravenous administration,rabbits [2],below 1 μg/ml
same,log P,[3],-0.55
same,absolute systemic bioavailability of oral tablets,"man [4]; man, oral tablets (Appelbaum et al., 1982)",about 70%
same,oral dose excreted in the stool unchanged,"man [4]; oral dose (Elion et al., 1966)",20-25%
same,solubility,[5],500 µg/mL
same,amount absorbed from suppository preparations administered rectally,man [6],< 5%
same,dose recovered in the urine as intact allopurinol,[7],12%
same,"dose recovered in the urine, total",[7],about 88%
same,solubility in water,[8],about 0.5 mg/ml
same,Fa,[9],< 2%
same,plasma levels of allopurinol after rectal administration,rabbits [10],below 1 μg/ml
